Data set [1] concerns human hepatocarcinoma cells (Huh7). To be noted: Huh7, 400 μM oleic acid, peptide 10 μM, 20 μM; FIGS. 3A-3B.
The test system is the same in data set [2]. Put plainly: fluorescence staining of lipid droplets in hepatocytes treated with the polypeptide. Format: cell-based. To be noted: Huh7, 400 μM oleic acid, peptide 10 μM, 20 μM; FIG. 4.

Ends that are not written are not given here.

This is an account of results in patent US12678480B2, “Polypeptide applied to inhibition of intracellular lipid accumulation and synthesis method thereof” (NATIONAL CHENG KUNG UNIVERSITY, priority 2021, dated 2026).

On to “MEPGGARLRLQRTEGLGGERERQPCGDGNTETHRAPDLVQWYGRKKRRQRRRK-OH [polypeptide]”, for which, in data set [1], the “level of total cholesterol (TC) in hepatocytes” value is recorded as “can reduce” and the “level of triglyceride (TG) in hepatocytes” value is listed as “can reduce”. Besides, the “generation of intracellular lipid droplets (LD)” value in data set [2] was “can inhibit”.
